# Experimental data as given in PMC8759731, “Design, synthesis, and evaluation of novel coumarin-dithiocarbamate derivatives (IDs) as anti-colorectal cancer agents” (Journal of Enzyme Inhibition and Medicinal Chemistry, 2021).
# Tests used:
# SW620 cells [1] = assay: Quantitative RT-PCR, SW620 cells; format: cell-based, human; conditions: SW620, 0 to 24 μM, 24 h, qRT-PCR
# Description: Cells (50,000 cells per well) incubated in 6-well plates were treated with compound ID-11 for 24 h. After that, the total RNA was extracted using Total RNA Extraction Reagent (Invitrogen, USA) according to the manufacturer’s instructions and quantified with NanoDrop 2000 (Nanodrop, USA). Then the cDNA was synthesized from total RNA using High-Capacity cDNA Reverse Transcription Kit (Applied Biosystems, USA). The SYBR Green Master reagents (Applied Biosystems, USA) was used to determine the relative expression of mRNA level by quantitative real-time PCR (qRT-PCR). The primer sequences are shown below.
# SW480 cells [2] = assay: Colony formation, SW480 cells; format: cell-based, human; conditions: 0 to 32 μM for 24 h, then 10 days
# Description: SW620 and SW480 cells were seeded in 6-well plates (1000 cells per well) and cultured in RPMI-1640 medium containing 10% FBS overnight. After the cells treatment with DMSO or compound ID-11 (4, 8, 16, and 32 μM) for 24 h, the culture medium was replaced by fresh RPMI-1640 medium (containing 10% FBS) and continue culturing for another 10 days. Then the cells were washed with PBS and fixed with methanol for 15 min and stained with 0.1% crystal violet for another 30 min. Finally, the cells were washed with running water, air-dried and visualised by photographing.
# BRD4 (BD1) = molecular target: T1, BRD4 (BD1) (Homo sapiens, UniProt O60885); assay: HTRF assay BRD4 (BD1); format: binding
# T1 construct: purchased Reaction Biology Corp. RD-11-157
# Description: In brief, compounds were serially diluted in Echo plate according to the plate map and DMSO’s final fraction is 0.1%. Then, transferring compounds and DMSO to 384-well assay plate by Echo. After that, 2× Protein and Peptide Mix was added to the assay plate and 2× Detection Mix was then added to assay plate and shook for 30 s. After incubating the plate at room temperature for 1.5 h, the HTRF signals (Excitation wavelength at 340 nm, Emission wavelength at 615 & 665 nm) was read on EnVision (PerkinElmer, UK). (+)-JQ1 (BPS Bioscience, Cat. No. 27402) was used as a positive control. BRD4-1 (RD-11–157) and BRD4-2 (RD-11–158) were purchased from Reaction Biology Corp. (PENN, USA). For Curve fitting, the inhibition values was calculated in Excel using Equation (1): Inhibition %=(Max-Signal)/(Max-Min)*100, and the IC50 values was calculated in XL-Fit using Equation (2): Y = Bottom + (Top-Bottom)/(1+(IC50/X)[…]), Y is %inhibition and X is compound concentration.
# SW480 cells [3] = assay: Western blot assay, SW480 cells; format: cell-based, human; conditions: 24 h
# Description: (§1) Cells were cultured in 6-well plates at a density of 40,000 cells per well overnight, and then exposed to selected compounds at different concentrations for 24 h. Subsequently, the cells were lysed in lysate buffer containing 50 mM Tris-HCl (PH 6.8), 2% SDS, 0.1% bromophenol blue, 1.5% DTT, 10% glycerol. The total protein extracts were boiled, sonicated, separated by 10–12% SDS-PAGE gels and transferred to polyvinylidene fluoride (PVDF) membranes. Then the membranes were blocked with 5% non-fat milk at room temperature for 1 h and incubated with primary antibodies at 4 °C overnight. After that, membranes were washed with 1× TBST for three times and incubated with secondary antibody at room temperature for 2 h. Finally, after washing with 1× TBST for three times, the bolts were visualised by an enhanced chemiluminescence kit (Beyotime, China) using the Amersham Imager 600 system (GE Healthcare Life Science, Shanghai, China).
# SW620 cells [4] = assay: Western blot assay, SW620 cells; format: cell-based, human; conditions: 24 h
# Description: as §1
structure (smiles),measurement,setting,value
"O=c1ccc2cc(CSC(=S)n3ccnc3)ccc2o1 [ID-11, (2-Oxo-2H-chromen-6-yl)methyl 1H-imidazole-1-carbodithioate]",mRNA relative expression level of Bcl-2,SW620 cells [1],also decreased in a concentration dependent way
same,mRNA relative expression level of c-Myc,SW620 cells [1],also decreased in a concentration dependent way
same,colony formation,SW480 cells [2],effectively inhibited
same,inhibition at 10 µM,"BRD4 (BD1); 10 μM, read-out: Inhibitory rate at 10 μM, BRD4 (BD1)",68.9%
same,IC50,BRD4 (BD1); mean ± SD of three independent experiments,7.8 ± 2.2 µM
same,expression level of cdc2,"SW480 cells [3]; SW480, 0 to 16 μM",decreased in a concentration-dependent way
same,expression level of cleaved PARP,"SW480 cells [3]; SW480, 0 to 16 μM",increased in a dose-dependent way
same,expression level of cyclin B1,"SW480 cells [3]; SW480, 0 to 16 μM",decreased in a concentration-dependent way
same,protein expression level of Bcl-2,"SW480 cells [3]; SW480, 0 to 24 μM",decreased
same,protein expression level of c-Myc,"SW480 cells [3]; SW480, 0 to 24 μM",decreased
same,expression level of cdc2,"SW620 cells [4]; SW620, 0 to 16 μM",decreased in a concentration-dependent way
same,expression level of cleaved PARP,"SW620 cells [4]; SW620, 0 to 16 μM",increased in a dose-dependent way
same,expression level of cyclin B1,"SW620 cells [4]; SW620, 0 to 16 μM",decreased in a concentration-dependent way
same,protein expression level of Bcl-2,"SW620 cells [4]; SW620, 0 to 24 μM",decreased
same,protein expression level of c-Myc,"SW620 cells [4]; SW620, 0 to 24 μM",decreased
